Reference: US20130225629A1, “TARGETING PI3K/MTOR SIGNALLING AND NEUTROPHIL RECRUITMENT FOR TREATMENT OF ENTERITIS” (THE UNIVERSITY OF NORTH CAROLINA AT CHAPEL HILL, priority 2012, published 2013)

Tests used:
Cxcl2 mRNA = assay: Real-time RT-PCR of colonic Cxcl2 mRNA; type: in vivo, mice; conditions: AS252424 vs vehicle treated infected mice
Procedure: (§1) Total RNA from colonic tissue was extracted using TRIzol® kit (Invitrogen, Carlsbad, Calif., United States of America). Complementary DNA was prepared using M-MLV (Invitrogen). Messenger RNA levels of proinflammatory genes were determined using SYBR® Green PCR Master Mix (Applied Biosystems, Carlsbad, Calif., United States of America) on an ABI 7900HT Fast Real-Time PCR System and normalized to Gapdh. The polymerase chain reactions were performed according to the manufacturer's recommendation. The following gene primers were used: Gapdh_forward: 5′-[…]-3′ (SEQ ID NO: 2), Gapdh_reverse: 5′-[…]-3′ (SEQ ID NO: 3), II-1_forward: 5′-[…]-3′ (SEQ ID NO: 4), II-1_reverse: 5′-[…]-3′ (SEQ ID NO: 5), Cxcl2_forward: 5′-[…]-3′ (SEQ ID NO: 6), Cxcl2_reverse: 5′-[…]-3′ (SEQ ID NO: 7), II-17a_forward: 5′-[…]-3′ (SEQ ID NO: 8), II-17a_reverse: 5′-[…]-3′ (SEQ ID NO: 9), II12p40_forward: […] (SEQ ID NO: 10), II12p40_reverse: […] (SEQ ID NO: 11), Tnf forward: […] (SEQ ID NO: 12), Tnf reverse: […] (SEQ ID NO: 13).
(§2) Total RNA from intestinal tissues was extracted using TRIzol® kit (Invitrogen, Carlsbad, Calif., United States of America) following the manufacture's guide. cDNA was reverse-transcribed using M-MLV (Invitrogen). Proinflammatory 111β, Cxcl2, II17a and Tnfα mRNA expression levels were measured using SYBR® Green PCR Master mix (Applied Biosystems, Carlsbad, Calif., United States of America) on an ABI 7900HT Fast Real-Time PCR System and normalized to Gapdh. The PCR primers used were reported previously. (Sun et al., 2012). The PCR reactions were performed for 40 cycles according to the manufacturer's recommendation, and RNA fold changes were calculated using the ΔΔct method.

C. jejuni = type: in vivo, mice
Text: All animal protocols were approved by the Institutional Animal Care and Use Committee of the University of North Carolina at Chapel Hill (Chapel Hill, N.C., United States of America). Germ-free 8 to 12 week old II10^−/−; NF-κBEGFP (129/SvEv; C57BL/6 mixed background) mice were transferred from germ-free isolators and immediately gavaged with 10^9 C. jejuni cfu/mouse (strain 81-176 (Korlath et al., 1985)). Mice were then housed under Specific Pathogen-Free (SPF) conditions and sacrificed at 5 or 12 days. Germ-free II10^−/−; NF-κB^EGFP mice were also gavaged with 10^7 Salmonella typhimurium (S. typhimurium strain CA32) cfu/mouse for 2 days or 10^7 Escherichia coli (E. coli strain NC 101) cfu/mouse for 12 days. Conventionally-derived II10^−/−; NF-κB^EGFP mice were put on an antibiotic cocktail (streptomycin 2 g/L, gentamycin 0.5 g/L, bacteriocin 1 g/L and ciprofloxacin 0.125 g/L) in water for 7 days and antibiotics withdrawn 24 hours prior to infection. The mice were then gavaged with 10^9 C. jejuni cfu/mouse for 14 days. To inhibit mTOR signaling, mice were injected daily intraperitoneally (i.p.) with rapamycin (1.5 mg/kg) (Fisher Scientific, Hampton, N.H., United States of America). At the end of the experiment, mice were euthanized using CO2 intoxication. Colon, mesenteric lymph nodes (MLN) and spleen were collected for further processing RNA, protein or C. jejuni culture on Campylobacter selective blood plates (Remel, Thermo Scientific, Hampton, N.H., United States of America) for 48 h at 37° C. using the GasPak system (Becton Dickinson, Franklin Lakes, N.J., United States of America). […] Colons were fixed in 10% buffered formalin (Fisher Scientific, Hampton, N.H., United States of America) overnight, paraffin-embedded, sectioned, and stained with H&E for histological evaluation. Images were acquired using a DP71 camera and DP Controller 3.1.1.276 (Olympus, Center Valley, Pa., United States of America). Intestinal inflammation was scored by evaluating the degree of lamina propria immune cell infiltration, goblet cell depletion, architectural distortion, as well as crypt hyperplasia, ulceration, and abscesses using a score from 0-4. (Lippert et al., 2009). Cecal and colonic inflammation induced by S. typhimurium was evaluated using a score from 0-13 as described. (Hapfelmeier et al., 2005).
MLN and spleen were aseptically resected. Colon tissue was opened, resected and washed three times in sterile PBS. […] C. jejuni colonies were counted and data presented as colony forming unit (cfu)/g tissue.

AKT (S473) = assay: Western blot of AKT phosphorylation in colonic lysates of C. jejuni infected mice; type: in vivo; conditions: AS252424 10 mg/kg i.p. daily, 6 days
Procedure: A segment of the distal colon was lysed in 300 μl Laemmli buffer, homogenized and heated at 95° C. for 5 min. 20 μg of total protein were separated by SDS-PAGE and transferred to nitrocellulose membranes. Targeted protein was detected using enhanced chemiluminescence reaction (ECL) as described previously (Muhlbauer et al., 2008). Primary antibodies used were phosphor-AKT (S473), phosphor-p70S6K (T389), total AKT (all from Cell Signaling, Danvers, Mass., United States of America) and EGFP (Sigma, St. Louis, Mo., United States of America). The density of Western blot bands was quantified using ImageJ and data were normalized to total AKT control.

II1β mRNA = assay: Real-time RT-PCR of colonic II1β mRNA; type: in vivo, mice; conditions: AS252424 vs vehicle treated infected mice
Procedure: as §1, §2

CMT-93 cells = assay: C. jejuni epithelial cell translocation assay (transwell); type: cell-based, Murine; conditions: 10 μM AS252424, transwell, up to 5 hrs
Procedure: Murine rectal carcinoma epithelial CMT-93 cells (1×10^6) were plated onto 12-well Transwells (Corning Inc., Corning, N.Y., United States of America) in DMEM media containing 10% FBS and 2 mM L-glutamine. Upon reached confluency (monolayer), the medium was changed to 1% FBS medium and 10^8 C. jejuni was added to the upper inserts in presence or absence of 10 μM AS252424. Aliquot of medium from bottom wells was collected every hr for 5 hrs, serially diluted and cultured on Remel (Remel, Thermo Scientific, Hampton, N.H., United States of America) plates as described before (Sun et al., 2012). Translocated C. jejuni was reported as CFU/ml at each time point.

Compound: O=C1NC(=O)/C(=C/c2ccc(-c3ccc(F)cc3O)o2)S1 [AS252424]
- block of C. jejuni-induced Cxcl2 mRNA accumulation (Cxcl2 mRNA): 73%
- levels of viable C. jejuni in the spleen (C. jejuni; AS252424 vs infected vehicle-treated mice): strongly reduced
- decrease of viable C. jejuni in MLN (C. jejuni; mouse, in vivo): 90%
- decrease of viable C. jejuni in colon (C. jejuni; mouse, in vivo): 97%
- AKT phosphorylation (S473) in colonic extracts (AKT (S473)): modest reduction
- block of C. jejuni-induced I11β mRNA accumulation (II1β mRNA): 77%
- C. jejuni translocation across CMT-93 monolayer (CMT-93 cells): did not prevent
